Measured values published in patent US12186457B2, “Sphingolipid coatings and process for manufacturing sphingolipid coatings effective for inhibiting biofilm formation” (UNIVERSITY OF CINCINNATI, priority 2015, dated 2025).

How the values were obtained:
Solubility in water = format: physicochemical
[1] = Quantification of sphingosine on the coated surface by sphingosine kinase assay; format: physicochemical; details: sphingosine kinase assay (FIG. 18B)
Procedure: Plastic pieces were extracted in CHCl3/CH3OH/1N HCl (100:100:1, v/v/v), the lower phase was dried and resuspended in a detergent solution (7.5% [w/v] n-octyl glucopyranoside, 5 mM cardiolipin in 1 mM diethylenetriaminepentaacetic acid (DTPA)). The kinase reaction was initiated by addition of 0.004 units sphingosine kinase in 50 mM HEPES (pH 7.4), 250 mM NaCl, 30 mM MgCl2 1 μM ATP and 5 μCi [^32P]γATP. Samples were incubated for 60 min at 37° C. with shaking (350 rpm), then extracted in 20 μl 1N HCl, 800 μl CHCl3/CH3OH/1N HCl (100:200:1, v/v/v), 240 μl CHCl3 and 2 M KCl. The lower phase was collected, dried, dissolved in 20 μL of CHCl3:CH3OH (1:1, v/v) and separated on Silica G60 thin layer chromatography (TLC) plates using CHCl3/CH3OH/acetic acid/H2O (90:90:15:5, v/v/v/v) for SPH. The TLC plates were analyzed using a phosphoimager.
(§1) To determine the total amount of sphingosine present on the surface of the endotracheal tubes after dip coating, we performed mass spectrometry (FIG. 18A) and a sphingosine kinase radioactivity assay (FIG. 18B). Both methods confirmed a concentration of sphingosine in the nmol to μmol range per cm^2. […] Sphingosine was either extracted and analyzed by mass spectrometry (FIG. 18A) or sphingosine kinase assay (FIG. 18B). The amount of sphingosine calculated on the surface after dip coating is (A) 131 nmol/cm^2 and (B) 152.5 nmol/cm^2, respectively.

[2] = inhalation, cited from earlier work
[3] = Quantification of sphingosine on the coated surface by mass spectrometry; format: physicochemical; details: mass spectrometry (FIG. 18A)
Procedure: Coated plastic surfaces were extracted by a one-step lipid extraction. Briefly, a plastic piece was transferred into a siliconized glass tube and adsorbed sphingosine was extracted by addition of 10 mL methanol and sonification on ice for 1 hour. After centrifugation, the lipid extract was diluted with methanol and 50 pmol of C17-sphingosine was added as internal standard. […] Ion funnel parameters were: high pressure RF voltage 110 V and low pressure RF voltage 60 V. Multiple reaction monitoring (MRM) transition 300.3 m/z>282.3 m z at 8 eV collision energy was used for quantification of sphingosine, whereas MRM transition 286.3 m/z>268.3 m/z at 8 eV collision energy was used for quantification of C17-sphingosine. Quantification was performed with Mass Hunter Software (Agilent Technologies).
as §1, with “18B).” for “18B). Both methods confirmed a concentration of sphingosine in the nmol to μmol range per cm^2.”

Row | SMILES | solubility in water (Solubility in water) | amount of sphingosine calculated on the surface after dip coating [1] [nmol/cm^2] | observable toxicity ([2]; mice) | rates of pneumonia ([2]; susceptible mice) | amount of sphingosine calculated on the surface after dip coating [3] [nmol/cm^2]
1 | CCCCCCCCCCCCCC[C@@H](O)[C@@H](O)[C@@H](N)CO [phytosphingosine, D-ribo-phytosphingosine] | nearly completely insoluble in water | – | – | – | –
2 | CCCCCCCCCCCCC/C=C/[C@@H](O)[C@@H](N)CO [sphingosine, D-erythrosphingosine (d18:1)] | nearly completely insoluble in water | 152.5 | did not result in any observable toxicity | reduce rates of pneumonia in susceptible mice | 131
